Measured values taken from US8426175B2, “Method for the production of a fermentation product from a pretreated lignocellulosic feedstock” (Iogen Energy Corporation, priority 2007, dated 2013).
Where two headings read alike, the source gives them in different places.

Columns and labels:
[1] = test system: contaminated recombinant Saccharomyces cultures; experiment: Batch fermentation of xylose to ethanol inoculated with chlorine dioxide-treated, recycled yeast slurry; type: cell-based
Procedure: Saccharomyces cells from a frozen glycerol stock were used to inoculate 4 L of Sc Inoculation Medium (pH 6). The inoculum was grown with shaking at 160 rpm for 24 h at 30° C. The cells were harvested by centrifugation (4000 rpm for 5 min) and the entire cell pellet was resuspended in about 50 mL of the supernatant and this was used to inoculate 20 L of Sc Propagation Medium (pH 5.0). A fed-batch fermentation was run for 4 days with mild aeration of 56 slpm and 500 rpm agitation by mechanical stirring. The pH was maintained at 5.0 and the temperature was maintained at 30° C. for the first two days followed by 28° C. for the last two days. A 60 g/L glucose solution was fed to the vessel at a rate of 83.3 mL/h. The culture was sampled three times daily and the samples analyzed for cell growth, xylose and glucose. At the end of the fermentation, the entire broth was harvested and the cells concentrated by centrifugation (4000 rpm for 5 min in multiple 4 L Nalgene bottles). The cell pellets were resuspended to a concentration of 22.5 g cell mass/L. This was used to inoculate 10 L of Sc Fermentation Medium. Batch fermentation was run for 2-3 days with 1 slpm aeration, 250 rpm mechanical agitation. The pH was maintained at 6.0 and the temperature maintained at 28-30° C. The culture was sampled three times daily and the samples analyzed for cell growth, xylose glucose and ethanol.
(§1) Xylose and glucose concentrations of each sample were measured as follows: 2 mL of the broth were centrifuged at 14,000 rpm for 3 min to remove cells and the supernatant filtered through a 0.2 μm syringe filter. 10× dilutions of the supernatant were prepared in 5 mM sulfuric acid solution. Dilutions were analyzed via HPLC using an Agilent 1100 Series HPLC stem equipped with an 1100 Series Autosampler and Pumping System and Chemstation control software. A Varian MetaCarb 87H column maintained at 50° C. was used for separation. The eluant was a 5 mM aqueous sulfuric acid solution with a flow rate of 0.600 mL/min. Glucose, ethanol, xylose and xylitol were quantified using an Agilent 1100 Series Refractive Index Detector. Acetic acid and lactic acid were measured using an Agilent 1200 Series Variable Wavelength Detector.
[…] The yeast slurry was treated with chlorine dioxide at 50 ppm, 300 ppm and 500 ppm. The yeast slurry was used to re-inoculate fermentors containing 10 L of Sc Fermentation Medium run in batch mode at a starting yeast concentration targeted at 22.5 g/L yeast, as described in Example 2a. The culture was sampled three times daily and the samples analyzed for xylose, lactic acid and ethanol as described in Example 2a.

[2] = test system: bacterially contaminated Candida tropicalis culture; experiment: Batch fermentation of xylose to xylitol inoculated with chlorine dioxide-treated, recycled yeast slurry; type: cell-based; settings: yeast slurry treated with 100 ppm at room temperature (FIG. 5)
Procedure: as §1
C. tropicalis cells from a frozen glycerol stock used to inoculate 2 L of Ct Inoculation Medium. The inoculum was grown with shaking at 160 rpm for 24 h at 30° C. The cells were harvested by centrifugation and the entire cell pellet was used to inoculate 2 L of Ct Xylose Medium. This culture was grown with shaking at 160 rpm for 24 h at 30° C. and the broth was used to inoculate 10 L of Ct Fermentation Medium. […] The culture was sampled three times daily and the samples analyzed for cell growth, xylose and xylitol as described in Example 2a. […]

[3] = test system: bacteria in contaminated yeast slurry; experiment: Bacterial enumeration on TSA + cycloheximide plates after ClO2 treatment of contaminated yeast slurry; type: cell-based
Procedure: (§2) The yeast was concentrated by centrifugation (4 min, 4000 rpm) and resuspended in the original, contaminated supernatant to 20 g/L, 200 g/L or 300 g/L. Contamination was verified microscopically. The three slurries produced were cooled in an ice-water bath treated with either ClO2 at 0, 10, 50, 250, 500, 750 and 1000 ppm, serially diluted and plated on YM agar (3.0 g/L yeast extract, 3.0 g/L malt extract, 5 g/L peptone, 10 g/L glucose, 20 g/L agar)+chloramphenicol (34 μg/mL) plates for yeast and TSA (15 g/L pancreatic casein digest, 5 g/L enzymatic soy meal digest, 5 g/L NaCl, 15 g/L agar)+cycloheximide (0.05 μg/mL) plates for bacterial enumeration. Plates were incubated overnight at 30° C. and 37° C. for yeast and bacteria, respectively. Plates were counted the next day and bacterial colonies were verified microscopically.

Saccharomyces yeast = settings: for impact on the viability of the yeast: 500 ppm or higher
Procedure: as §2

Lactobacillus strains = settings: cited from earlier work
[4] = 200 g/L yeast slurry treated at 300 ppm (FIG. 3B)
[5] = 300 g/L yeast slurry treated at 500 ppm (FIG. 3C)

## [O][Cl+][O-] [chlorine dioxide]
[1]; [4]
  ethanol product produced versus culture from slurry treated with 50 ppm: significantly more
  unwanted lactic acid byproduct produced versus culture from slurry treated with 50 ppm: less
[1]; [5]
  ethanol product produced versus culture from slurry treated with 50 ppm: significantly more
  unwanted lactic acid byproduct produced versus culture from slurry treated with 50 ppm: less
[1]; cells treated with the higher chlorine dioxide dosages (300, 500 ppm) vs 50 ppm
  rate of xylose consumption: significantly faster
[2]
  xylitol fermentation product produced versus culture inoculated with the untreated slurry: produced more
[3]; 20 g/L yeast cell suspension
  chlorine dioxide dosage that effectively suppresses bacterial growth: ≥ 250 ppm
[3]; 200 g/L yeast suspension
  chlorine dioxide dosage required for effective bacterial decontamination: ≥ 500 ppm
[3]; 300 g/L yeast suspension
  chlorine dioxide dosage required for effective bacterial decontamination: ≥ 500 ppm
Saccharomyces yeast; 20 g/L yeast cell suspension, 250 ppm or higher
  impact on yeast viability: little to no impact
Saccharomyces yeast; 200 g/L yeast suspension
  impact on the viability of the yeast: little or no impact
Saccharomyces yeast; 300 g/L yeast suspension
  impact on the viability of the yeast: little or no impact

## OO [hydrogen peroxide]
Lactobacillus strains; one of the Lactobacillus species tested
  reducing the viability of Lactobacillus: effective

## O=S(O)O [sulfite]
Lactobacillus strains; treatment of yeast cells concentrated by filtration
  susceptibility of bacterial contaminants (two Lactobacillus strains): susceptible to sulfite only in the presence of oxygen
